According to article PMC11653251 (2024):

Legend:
[1] = tested on: (AT)6 (DNA, duplex) ATATATATATAT; test: UV-vis absorption titration, Bard fit; details: K+ (50 mM potassium phosphate), complex 10 μM, average of two titrations, [DNA] per nucleobase (stated for st-DNA)
[2] = tested on: (GC)6 (DNA, duplex) GCGCGCGCGCGC; test: UV-vis absorption titration, Bard fit; details: K+ (50 mM potassium phosphate), complex 10 μM, average of two titrations, [DNA] per nucleobase (stated for st-DNA)

| Kb [1] | Kb [2] | Structure (SMILES) |
| --- | --- | --- |
| 1.13 ± 0.24 × 10^6 M^-1 | 1.17 ± 0.53 × 10^6 M^-1 | Cc1cnc2c(ccc3c(C)c(C)cnc32)c1C.Cc1cnc2c(ccc3c(C)c(C)cnc32)c1C.[Cr+3].c1ccc2cc3nc4c5cccnc5c5ncccc5c4nc3cc2c1 [Δ-1] |
| 11.8 ± 0.35 × 10^6 M^-1 | 2.39 ± 0.32 × 10^6 M^-1 | Cc1cnc2c(ccc3c(C)c(C)cnc32)c1C.Cc1cnc2c(ccc3c(C)c(C)cnc32)c1C.[Cr+3].c1ccc2cc3nc4c5cccnc5c5ncccc5c4nc3cc2c1 [Λ-1] |
